Assay results published in article PMC3974725, “A Random Sequential Mechanism of Aminoglycoside Acetylation by Mycobacterium tuberculosis Eis Protein” (PLoS ONE, 2014).
Where two headings read alike, the source gives them in different places.

How the values were obtained:
MtEis [1] = molecular target: T1, MtEis (Mycobacterium tuberculosis, UniProt P9WFK7); experiment: Steady-state acetyltransferase assays (DTNB, absorbance at 412 nm), bisubstrate kinetic analysis; assay type: biochemical
MtEis [2] = molecular target: T1, MtEis; details: cited from earlier work

T1 sequence (P9WFK7 whole entry, looked up): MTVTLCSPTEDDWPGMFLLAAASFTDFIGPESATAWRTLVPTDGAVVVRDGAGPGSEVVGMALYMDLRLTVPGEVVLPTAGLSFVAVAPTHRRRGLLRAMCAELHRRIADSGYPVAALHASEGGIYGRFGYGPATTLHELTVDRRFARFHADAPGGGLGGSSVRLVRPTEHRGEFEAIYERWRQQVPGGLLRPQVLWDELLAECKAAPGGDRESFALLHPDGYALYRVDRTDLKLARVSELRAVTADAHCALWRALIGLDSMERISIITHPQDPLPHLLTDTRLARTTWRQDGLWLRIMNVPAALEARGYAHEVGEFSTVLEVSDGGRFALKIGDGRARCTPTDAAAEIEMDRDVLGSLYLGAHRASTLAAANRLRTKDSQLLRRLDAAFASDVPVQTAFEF

Compound	K d,AcCoA(E) lower than that for AcCoA binding to Eis from M. smegmatis (MtEis [1]; MtEis versus M. smegmatis Eis value of ref 6)	Kd (MtEis [1]; binding of AcCoA to free MtEis, read-out: K d,AcCoA(E)) [µM]	Kd (MtEis [1]; binding of AcCoA to the KAN bound enzyme, read-out: K d,AcCoA(AG•E)) [µM]	Kd (MtEis [1]; binding of AcCoA to the NEO bound enzyme, read-out: K d,AcCoA(AG•E)) [µM]	higher affinity for the AcCoA bound enzyme than KAN (MtEis [1]; NEO versus KAN, K d,AG(AcCoA•E))	Kd (MtEis [1]; binding of AG to free enzyme, from thermodynamic cycle K d,AcCoA(E) K d,AG(AcCoA•E)/K d,AcCoA(AG•E), read-out: K d,AG(E)) [µM]	Kd (MtEis [1]; binding of AG to the AcCoA bound enzyme, simultaneous fit of KAN and NEO acetylation data, read-out: K d,AG(AcCoA•E)) [µM]	extent of acetylation by MtEis (MtEis [2])	k cat (microscopic rate constant of the acetylation step) (MtEis [1]; AG as substrate of MtEis, random sequential mechanism fit, Tris 50 mM, pH 8.0) [s⁻¹]
CC(=O)SCCNC(=O)CCNC(=O)[C@H](O)C(C)(C)COP(=O)(O)OP(=O)(O)OC[C@H]1O[C@@H](n2cnc3c(N)ncnc32)[C@H](O)[C@@H]1OP(=O)(O)O [AcCoA, acetyl coenzyme A]	about 4 fold	18 ± 14	45 ± 37	111 ± 62	–	–	–	–	–
NC[C@@H]1O[C@H](O[C@H]2[C@@H](O)[C@H](O[C@@H]3[C@@H](O)[C@H](N)C[C@H](N)[C@H]3O[C@H]3O[C@H](CN)[C@@H](O)[C@H](O)[C@H]3N)O[C@@H]2CO)[C@H](N)[C@@H](O)[C@@H]1O [NEO, neomycin B]	–	–	–	–	approximately 3 fold	22 ± 17	135 ± 53	tri-acetylated	–
kanamycin A	–	–	–	–	–	–	–	di-acetylated	0.68 ± 0.15
